Consider twelve compounds from US20240238425A1, “HSD17B13 Inhibitors and/or Degraders” (Pfizer Inc., priority 2022, published 2024).

Where a name gives a salt, the structure may show the parent alone.

This experiment concerns HiBiT-HSD17β13 fusion protein (N-terminal HiBiT-tagged HSD17β13 isoform D) in Huh7 HiBiT-HSD17β13 OE cells. As to the kind of experiment: Whole-cell Huh7-HSD17B13 HiBiT assay (degrader potency and maximal efficacy, luminescence readout). The experiment is classed as cell-based, human. To be noted: 24 hour incubation, geometric mean, * = geometric mean for all forms tested (parent and salt forms); for DC50: read-out: Huh7_HIBIT-HSD17β13_DC50 GMean DC50; for Huh7_HIBIT-HSD17β13_DC50 GMean Asymptote Maximum: max. concentration 1 μM. As to the method: Degrader potency and maximal efficacy of test compounds were determined using a whole-cell Huh7-HSD17B13 HiBiT assay, utilizing a luminescence readout. A HiBiT tag was fused to the N-terminus of HSD17β13, and therefore the HiBiT luminescence signal produced in the assay was proportional to the level of HiBiT-HSD17β13 fusion protein in a sample.
A Huh7 HiBiT-HSD17β13 OE cell line was generated using electroporation with an N-terminal HiBiT-tagged HSD17β13 isoform D overexpression plasmid, followed by geneticin selection to produce a stable pool. Clones were created with varying HiBiT signals to optimize HiBiT HSD17 β13 ratios. A clone with similar HSD17β13 expression levels as human primary hepatocytes was selected for the compound screen.
Greiner 384-well white opaque, flat bottom, tissue culture treated plates (Greiner #781080) were used for both HiBiT and CTG assays. The treated plates were spotted with 25 nL of a compound which had been serial diluted 1 in 3.162 in 100% DMSO for an 11-point concentration response curve, with duplicate points at each concentration. The maximum concentration of the compounds was 1 mM, which was later diluted with cell suspension for a maximum concentration of 1 μM). High percentage effect (HPE) wells and zero percentage effect (ZPE) wells located in columns 1 and 24 were spotted with 25 nL of DMSO (Sigma #D2650) using an ECHO Acoustic Liquid Handler (Labcyte Echo 550 Series). Each plate was performed in duplicate.
The Huh7 HiBiT-HSD17β13 OE cells were plated on top of a compound or a DMSO control at 3,000 viable cells/well in 25 μL growth media (DMEM (Gibco #10569), 10% FBS HI (Gibco #16140), 1× Pen/Strep (Gibco #15070), 1×MEM Non-Essential Amino Acids (Gibco #11140), and 300 μg/mL Geneticin (Gibco #10131) in columns 2-24 of the plates. Huh7 parental cells were plated using the same parameters in column 1 (HPE) in the same culture medium, excluding Geneticin selection. Cells were incubated overnight with the compounds for 24 hours (with lid) at 37° C. ([…]).
Each assay was conducted after a 24 hour incubation period. In the HiBiT assay plates, 25 μL of complete Nano-Glo HiBiT Lytic detection system (Promega #PRN3040), consisting of HiBiT Lytic Buffer with the addition of 1:100 LgBiT Protein and 1:50 Substrate, was added to each well. In CTG counter screen plates, 25 μL of Cell Titer-Glo Luminescent Reagent (Promega #G7573) was added to each well. Both plates were centrifuged for 2 minutes at 1000 rpm and incubated at room temperature, in the dark, for 10 minutes. Then Luminescence was read using an EnVision Plate Reader (Perkin Elmer PE2103).
The raw data from the Envision Plate Reader was expressed as relative luminescence units (RLUs) for each well of the assay plates. Using HPE and ZPE controls, the % effect was calculated for each sample well as follows: Percent effect=[(sample RLU−HPE RLU)\(ZPE RLU−HPE RLU)]*100. The percent effect was plotted versus the compound concentration and a 50% degradation ([…]) was determined using a four-parameter logistic dose response equation. The raw data was analyzed using ABase (IDBS).
Background: The HiBiT peptide binds its large partner to form an active luciferase.

For the compound `Cl.Cn1c(=O)n(C2CCC(=O)NC2=O)c2ccc(CCCN3CCN(c4nccc(-c5nc(C67CCC(CNC(=O)c8cc(F)c(O)c(F)c8F)(CC6)CC7)no5)n4)CC3)cc21` (racemic) [Example 3, N-{[4-(5-{2-[4-(3-{1-[(3RS)-2,6-Dioxopiperidin-3-yl]-3-methyl-2-oxo-2,3-dihydro-1H-benzimidazol-5-yl}propyl)piperazin-1-yl]pyrimidin-4-yl}-1,2,4-oxadiazol-3-yl)bicyclo[2.2.2]octan-1-yl]methyl}-2,3,5-trifluoro-4-hydroxybenzamide, hydrochloride salt], the DC50 worked out at 0.19 nM and the “Huh7_HIBIT-HSD17β13_DC50 GMean Asymptote Maximum” value was 84* %.

As for `O=C1CCN(c2cnn3cc(CCCN4CCN(c5ncc(-c6ccn7cc([C@]89CC[C@](CNC(=O)c%10cc(F)c(O)c(F)c%10F)(CC8)CC9)nc7c6)cn5)CC4)ccc23)C(=O)N1` [Example 99, N-[(4-{7-[2-(4-{3-[3-(2,4-dioxo-1,3-diazinan-1-yl)pyrazolo[1,5-a]pyridin-6-yl]propyl}piperazin-1-yl)pyrimidin-5-yl]imidazo[1,2-a]pyridin-2-yl}bicyclo[2.2.2]octan-1-yl)methyl]-2,3,5-trifluoro-4-hydroxybenzamide, formate salt], the DC50 turned out to be 1.7 nM and the “Huh7_HIBIT-HSD17β13_DC50 GMean Asymptote Maximum” value was determined as 70%.

Consider `Cn1c(=O)n(C2CCC(=O)NC2=O)c2ccc(CCCN3CCN(c4nccc(-c5nc(C6CCC(CNC(=O)c7cc(F)c(O)c(F)c7F)CC6)no5)n4)CC3)cc21.O=C(O)C(F)(F)F` (racemic) [Example 17, N-{[(1r,4r)-4-(5-{2-[4-(3-{1-[(3RS)-2,6-Dioxopiperidin-3-yl]-3-methyl-2-oxo-2,3-dihydro-1H-benzimidazol-5-yl}propyl)piperazin-1-yl]pyrimidin-4-yl}-1,2,4-oxadiazol-3-yl)cyclohexyl]methyl}-2,3,5-trifluoro-4-hydroxybenzamide, trifluoroacetate salt], for which the DC50 was determined as 0.47 nM and the “Huh7_HIBIT-HSD17β13_DC50 GMean Asymptote Maximum” value came to 85%.

On to `Cc1ccc(C(=O)N2CCC3(CCC(CN4CCN(c5ccc6cn([C@H]7CC[C@H](CNC(=O)c8cc(F)c(O)c(F)c8F)CC7)nc6c5)CC4)CC3)CC2)cc1N1CCC(=O)NC1=O` [Example 103, N-{[(1r,4r)-4-{6-[4-({3-[3-(2,4-dioxo-1,3-diazinan-1-yl)-4-methylbenzoyl]-3-azaspiro[5.5]undecan-9-yl}methyl)piperazin-1-yl]-2H-indazol-2-yl}cyclohexyl]methyl}-2,3,5-trifluoro-4-hydroxybenzamide, trifluoroacetate salt], for which the DC50 was 1.2 nM and the “Huh7_HIBIT-HSD17β13_DC50 GMean Asymptote Maximum” value amounted to 76%.

In the case of `O=C1CCN(c2cnc3cc(CCCN4CCN(c5ccc6cn([C@H]7CC[C@H](CNC(=O)c8cc(F)c(O)c(F)c8F)CC7)nc6c5)CC4)ccn23)C(=O)N1` [Example 47, N-({(1r,4r)-4-[6-(4-{3-[3-(2,4-dioxo-1,3-diazinan-1-yl)imidazo[1,2-a]pyridin-7-yl]propyl}piperazin-1-yl)-2H-indazol-2-yl]cyclohexyl}methyl)-2,3,5-trifluoro-4-hydroxybenzamide, trifluoroacetate salt], the DC50 came to 4.3 nM and the “Huh7_HIBIT-HSD17β13_DC50 GMean Asymptote Maximum” value turned out to be 78%.

With `Cn1c(=O)n(C2CCC(=O)NC2=O)c2cccc(CN3CCN(c4ccc5cn([C@H]6CC[C@H](CNC(=O)c7cc(F)c(O)c(F)c7F)CC6)nc5c4)CC3)c21` (mixture of isomers) [Example 52, N-{[(1r,4r)-4-{6-[4-({1-[(3RS)-2,6-dioxopiperidin-3-yl]-3-methyl-2-oxo-2,3-dihydro-1H-benzimidazol-4-yl}methyl)piperazin-1-yl]-2H-indazol-2-yl}cyclohexyl]methyl}-2,3,5-trifluoro-4-hydroxybenzamide, trifluoroacetate salt], the DC50 is 1.6 nM and the “Huh7_HIBIT-HSD17β13_DC50 GMean Asymptote Maximum” value is listed as 80%.

With `O=C1CCN(c2cnn3cc(CCCN4CCN(c5ccc6cn([C@]78CC[C@](CNC(=O)c9cc(F)c(O)c(F)c9F)(CC7)CC8)nc6c5)CC4)ccc23)C(=O)N1` [Example 97, N-({4-[6-(4-{3-[3-(2,4-dioxo-1,3-diazinan-1-yl)pyrazolo[1,5-a]pyridin-6-yl]propyl}piperazin-1-yl)-2H-indazol-2-yl]bicyclo[2.2.2]octan-1-yl}methyl)-2,3,5-trifluoro-4-hydroxybenzamide, trifluoroacetate salt], the DC50 worked out at 2.4 nM and the “Huh7_HIBIT-HSD17β13_DC50 GMean Asymptote Maximum” value was found to be 76%.

On to `Cn1c(=O)n(C2CCC(=O)NC2=O)c2ccc(CCCN3Cc4ccc(-c5ccc6cn(C7CCC(CNC(=O)c8cc(F)c(O)c(F)c8F)CC7)nc6c5)nc4C3)cc21` (racemic) [Example 2, N-{[(1r,4r)-4-{6-[6-(3-{1-[(3RS)-2,6-Dioxopiperidin-3-yl]-3-methyl-2-oxo-2,3-dihydro-1H-benzimidazol-5-yl}propyl)-6,7-dihydro-5H-pyrrolo[3,4-b]pyridin-2-yl]-2H-indazol-2-yl}cyclohexyl]methyl}-2,3,5-trifluoro-4-hydroxybenzamide], for which the DC50 came out at 0.16 nM and the “Huh7_HIBIT-HSD17β13_DC50 GMean Asymptote Maximum” value is recorded as 83* %.

With `Cn1c(=O)n(C2CCC(=O)NC2=O)c2ccc(CCCN3C[C@H]4CN(c5ccc6cn([C@H]7CC[C@H](CNC(=O)c8cc(F)c(O)c(F)c8F)CC7)nc6c5)C[C@@H]4C3)cc21` (mixture of isomers) [Example 118, N-{[(1r,4r)-4-{6-[(3aS,6aS)-5-(3-{1-[(3RS)-2,6-dioxopiperidin-3-yl]-3-methyl-2-oxo-2,3-dihydro-1H-benzimidazol-5-yl}propyl)hexahydropyrrolo[3,4-c]pyrrol-2(1H)-yl]-2H-indazol-2-yl}cyclohexyl]methyl}-2,3,5-trifluoro-4-hydroxybenzamide, trifluoroacetate salt], the half-maximal degradation concentration (DC50) was found to be 2.9 nM and the “Huh7_HIBIT-HSD17β13_DC50 GMean Asymptote Maximum” value was 78%.

With `Cn1c(=O)n(C2CCC(=O)NC2=O)c2ccc(CCCN3CCc4nc(-c5ccc6cn([C@H]7CC[C@H](CNC(=O)c8cc(F)c(O)c(F)c8F)CC7)nc6c5)ccc4C3)cc21` (mixture of isomers) [Example 21, N-{[(1r,4r)-4-{6-[6-(3-{1-[(3RS)-2,6-Dioxopiperidin-3-yl]-3-methyl-2-oxo-2,3-dihydro-1H-benzimidazol-5-yl}propyl)-5,6,7,8-tetrahydro-1,6-naphthyridin-2-yl]-2H-indazol-2-yl}cyclohexyl]methyl}-2,3,5-trifluoro-4-hydroxybenzamide], the 50% degradation concentration (DC50) came out at 0.38 nM and the “Huh7_HIBIT-HSD17β13_DC50 GMean Asymptote Maximum” value is 74%.

`Cl.Cn1c(=O)n(C2CCC(=O)NC2=O)c2ccc(CCCN3CCN(c4ccc5cn([C@H]6CC[C@H](CNC(=O)c7cc(F)c(O)c(F)c7F)CC6)nc5c4)CC3)cc21` (mixture of isomers) [Example 27, N-{[(1r,4r)-4-{6-[4-(3-{1-[(3RS)-2,6-dioxopiperidin-3-yl]-3-methyl-2-oxo-2,3-dihydro-1H-benzimidazol-5-yl}propyl)piperazin-1-yl]-2H-indazol-2-yl}cyclohexyl]methyl}-2,3,5-trifluoro-4-hydroxybenzamide, hydrochloride salt]: the DC50 was found to be 0.82 nM and the “Huh7_HIBIT-HSD17β13_DC50 GMean Asymptote Maximum” value amounted to 86%.

Regarding `O=C(O)C(F)(F)F.O=C1CCN(c2cnn3cc(CCCN4CCN(c5ncc(-c6ccc7cn(C89CCC(CNC(=O)c%10cc(F)c(O)c(F)c%10F)(CC8)CC9)nc7c6)cn5)CC4)ccc23)C(=O)N1` [Example 105, N-[(4-{6-[2-(4-{3-[3-(2,4-dioxo-1,3-diazinan-1-yl)pyrazolo[1,5-a]pyridin-6-yl]propyl}piperazin-1-yl)pyrimidin-5-yl]-2H-indazol-2-yl}bicyclo[2.2.2]octan-1-yl)methyl]-2,3,5-trifluoro-4-hydroxybenzamide, trifluoroacetate salt], the DC50 came out at 1.3 nM and the “Huh7_HIBIT-HSD17β13_DC50 GMean Asymptote Maximum” value is recorded as 76%.

A word on the DC50: it is the concentration giving 50% degradation.
